Measurements taken from patent publication US9656988B2 (Pharmacyclics LLC, priority 2013, dated 2017).
Where two headings read alike, the source gives them in different places.

Target: BTK (Homo sapiens (Human), UniProt Q06187)
Assay: Btk in vitro inhibitory activity (one of Method A TR-FRET, Method B electrophoretic mobility shift, Method C radiometric filter binding)
Format: biochemical
[1] = determined using one of the methods of Example 355a, 355b and 355c, read-out: BTK IC50

BTK, sequence (Q06187 whole entry): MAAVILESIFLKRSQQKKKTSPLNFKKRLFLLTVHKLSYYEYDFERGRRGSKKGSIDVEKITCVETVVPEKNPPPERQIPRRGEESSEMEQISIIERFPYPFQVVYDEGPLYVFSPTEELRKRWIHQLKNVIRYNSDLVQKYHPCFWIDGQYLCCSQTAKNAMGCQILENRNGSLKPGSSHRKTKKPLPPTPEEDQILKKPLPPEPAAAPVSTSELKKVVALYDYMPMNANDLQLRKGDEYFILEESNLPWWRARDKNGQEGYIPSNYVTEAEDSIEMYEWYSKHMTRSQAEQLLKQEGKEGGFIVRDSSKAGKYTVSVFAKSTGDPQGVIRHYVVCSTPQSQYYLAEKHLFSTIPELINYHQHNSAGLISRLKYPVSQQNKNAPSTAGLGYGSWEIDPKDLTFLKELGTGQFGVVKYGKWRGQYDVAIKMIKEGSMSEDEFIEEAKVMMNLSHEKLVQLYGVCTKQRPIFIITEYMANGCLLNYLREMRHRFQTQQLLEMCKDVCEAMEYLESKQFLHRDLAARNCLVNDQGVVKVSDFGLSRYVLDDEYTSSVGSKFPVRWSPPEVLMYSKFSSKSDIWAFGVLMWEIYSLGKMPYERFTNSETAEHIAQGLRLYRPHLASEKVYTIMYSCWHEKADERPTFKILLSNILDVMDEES

Compound | IC50 [1] | IC50 (read-out: Btk (IC50)) | IC50 | IC50 (Btk (IC50))
COc1ccc(C(=O)N[C@@H]2CCCN(c3cnc(C(N)=O)c(Nc4ccc(C(=O)N(C)C)cc4)n3)C2)cc1 [Example 118, (R)-3-(4-(dimethylcarbamoyl)phenylamino)-5-(3-(4-methoxybenzamido)piperidin-1-yl)pyrazine-2-carboxamide] | 10 to 100 nM | 10 to 100 nM | – | –
COc1ccc(C(=O)N[C@@H]2CCCN(c3cnc(C(N)=O)c(Nc4cc(C)ns4)n3)C2)cc1 [Example 119, (R)-5-(3-(4-methoxybenzamido)piperidin-1-yl)-3-(3-methylisothiazol-5-ylamino)pyrazine-2-carboxamide] | 10 to 100 nM | – | – | –
COc1ccc(C(=O)N[C@@H]2CCCN(c3cnc(C(N)=O)c(Nc4ccc5ncccc5c4)n3)C2)cc1 [Example 120, (R)-5-(3-(4-methoxybenzamido)piperidin-1-yl)-3-(quinolin-6-ylamino)pyrazine-2-carboxamide] | 10 to 100 nM | 10 to 100 nM | – | –
COc1ccc(C(=O)N[C@@H]2CCCN(c3cnc(C(N)=O)c(Nc4ccc5ncsc5c4)n3)C2)cc1 [Example 121, (R)-3-(benzo[d]thiazol-6-ylamino)-5-(3-(4-methoxybenzamido)piperidin-1-yl)pyrazine-2-carboxamide] | 10 to 100 nM | 10 to 100 nM | – | –
COc1ccc(C(=O)N[C@@H]2CCCN(c3cnc(C(N)=O)c(Nc4ccc(C5CCOCC5)cc4)n3)C2)cc1 [Example 122, (R)-5-(3-(4-methoxybenzamido)piperidin-1-yl)-3-(4-(tetrahydro-2H-pyran-4-yl)phenylamino)pyrazine-2-carboxamide] | < 10 nM | – | – | –
COc1ccc(C(=O)N[C@@H]2CCCN(c3cnc(C(N)=O)c(Nc4ccc(N5CCOCC5)cc4)n3)C2)cc1 [Example 123, (R)-5-(3-(4-methoxybenzamido)piperidin-1-yl)-3-(4-morpholinophenylamino)pyrazine-2-carboxamide] | < 10 nM | – | – | –
COc1ccc(C(=O)N[C@@H]2CCCN(c3cnc(C(N)=O)c(Nc4ccc(N5CCOCC5)nc4)n3)C2)cc1 [Example 124, (R)-5-(3-(4-methoxybenzamido)piperidin-1-yl)-3-(6-morpholinopyridin-3-ylamino)pyrazine-2-carboxamide] | < 10 nM | – | 10 to 100 nM | –
COc1ccc(C(=O)N[C@@H]2CCCN(c3cnc(C(N)=O)c(Nc4ccc(N5CCOCC5)c(F)c4)n3)C2)cc1 [Example 125, (R)-3-(3-fluoro-4-morpholinophenylamino)-5-(3-(4-methoxybenzamido)piperidin-1-yl)pyrazine-2-carboxamide] | < 10 nM | – | – | –
COc1ccc(C(=O)N[C@@H]2CCCN(c3cnc(C(N)=O)c(Nc4ccc(N5CCOCC5=O)cc4)n3)C2)cc1 [Example 126, (R)-5-(3-(4-methoxybenzamido)piperidin-1-yl)-3-(4-(3-oxomorpholino)phenylamino)pyrazine-2-carboxamide] | < 10 nM | – | 10 to 100 nM | –
COc1ccc(C(=O)N[C@@H]2CCCN(c3cnc(C(N)=O)c(Nc4ccc(-n5ccccc5=O)cc4)n3)C2)cc1 [Example 127, (R)-5-(3-(4-methoxybenzamido)piperidin-1-yl)-3-(4-(2-oxopyridin-1(2H)-yl)phenylamino)pyrazine-2-carboxamide] | 10 to 100 nM | 10 to 100 nM | – | –
COc1ccc(C(=O)N[C@@H]2CCCN(c3cnc(C(N)=O)c(Nc4ccc(N5CCCCC5=O)cc4)n3)C2)cc1 [Example 128, (R)-5-(3-(4-methoxybenzamido)piperidin-1-yl)-3-(4-(2-oxopiperidin-1-yl)phenylamino)pyrazine-2-carboxamide] | < 10 nM | < 10 nM | – | –
CN1CCN(c2ccc(Nc3nc(N4CCC[C@@H](NC(=O)c5ccc(C(C)(C)C)cc5)C4)cnc3C(N)=O)cc2)CC1 [Example 129, (R)-5-(3-(4-tert-butylbenzamido)piperidin-1-yl)-3-(4-(4-methylpiperazin-1-yl)phenylamino)pyrazine-2-carboxamide] | < 10 nM | < 10 nM | – | –
CN1CCC(c2ccc(Nc3nc(N4CCC[C@@H](NC(=O)c5ccc(C(C)(C)C)cc5)C4)cnc3C(N)=O)cc2)CC1 [Example 130, (R)-5-(3-(4-tert-butylbenzamido)piperidin-1-yl)-3-(4-(1-methylpiperidin-4-yl)phenylamino)pyrazine-2-carboxamide] | < 10 nM | < 10 nM | – | –
COc1ccc(C(=O)N[C@@H]2CCCN(c3cnc(C(N)=O)c(Nc4ccc(C5CCN(C)CC5)cc4)n3)C2)cc1 [Example 131, (R)-5-(3-(4-methoxybenzamido)piperidin-1-yl)-3-(4-(1-methylpiperidin-4-yl)phenylamino)pyrazine-2-carboxamide] | < 10 nM | < 10 nM | – | –
CCN1CCC(c2ccc(Nc3nc(N4CCC[C@@H](NC(=O)c5ccc(OC)cc5)C4)cnc3C(N)=O)cc2)CC1 [Example 132, (R)-3-(4-(1-ethylpiperidin-4-yl)phenylamino)-5-(3-(4-methoxybenzamido)piperidin-1-yl)pyrazine-2-carboxamide] | < 10 nM | < 10 nM | – | –
COc1ccc(C(=O)N[C@@H]2CCCN(c3cnc(C(N)=O)c(Nc4ccc(C5CCN(C6CC6)CC5)cc4)n3)C2)cc1 [Example 133, (R)-3-(4-(1-cyclopropylpiperidin-4-yl)phenylamino)-5-(3-(4-methoxybenzamido)piperidin-1-yl)pyrazine-2-carboxamide] | < 10 nM | < 10 nM | – | –
COc1ccc(C(=O)N[C@@H]2CCCN(c3cnc(C(N)=O)c(Nc4ccc(C5CCN(C(C)C)CC5)cc4)n3)C2)cc1 [Example 134, (R)-3-(4-(1-isopropylpiperidin-4-yl)phenylamino)-5-(3-(4-methoxybenzamido)piperidin-1-yl)pyrazine-2-carboxamide] | < 10 nM | < 10 nM | – | –
COc1ccc(C(=O)N[C@@H]2CCCN(c3cnc(C(N)=O)c(Nc4ccc(C5CCN(C6CCCC6)CC5)cc4)n3)C2)cc1 [Example 135, (R)-3-(4-(1-cyclopentylpiperidin-4-yl)phenylamino)-5-(3-(4-methoxybenzamido)piperidin-1-yl)pyrazine-2-carboxamide] | < 10 nM | < 10 nM | – | –
COc1ccc(C(=O)N[C@@H]2CCCN(c3cnc(C(N)=O)c(Nc4ccc(C5CCN(CC#N)CC5)cc4)n3)C2)cc1 [Example 136, (R)-3-(4-(1-(cyanomethyl)piperidin-4-yl)phenylamino)-5-(3-(4-methoxybenzamido)piperidin-1-yl)pyrazine-2-carboxamide] | 10 to 100 nM | 10 to 100 nM | – | –
COc1ccc(C(=O)N[C@@H]2CCCN(c3cnc(C(N)=O)c(Nc4ccc(C5CCN(CC(F)(F)F)CC5)cc4)n3)C2)cc1 [Example 137, (R)-5-(3-(4-methoxybenzamido)piperidin-1-yl)-3-(4-(1-(2,2,2-trifluoroethyl)piperidin-4-yl)phenylamino)pyrazine-2-carboxamide] | 10 to 100 nM | – | – | 10 to 100 nM
COc1ccc(C(=O)N[C@@H]2CCCN(c3cnc(C(N)=O)c(Nc4ccc(C5CCN(C=O)CC5)cc4)n3)C2)cc1 [Example 138, (R)-3-(4-(1-formylpiperidin-4-yl)phenylamino)-5-(3-(4-methoxybenzamido)piperidin-1-yl)pyrazine-2-carboxamide] | < 10 nM | < 10 nM | – | –
COc1ccc(C(=O)N[C@@H]2CCCN(c3cnc(C(N)=O)c(Nc4ccc(C5CCN(C(C)=O)CC5)cc4)n3)C2)cc1 [Example 139, (R)-3-(4-(1-acetylpiperidin-4-yl)phenylamino)-5-(3-(4-methoxybenzamido)piperidin-1-yl)pyrazine-2-carboxamide] | < 10 nM | < 10 nM | – | –
CCC(=O)N1CCC(c2ccc(Nc3nc(N4CCC[C@@H](NC(=O)c5ccc(OC)cc5)C4)cnc3C(N)=O)cc2)CC1 [Example 140, (R)-5-(3-(4-methoxybenzamido)piperidin-1-yl)-3-(4-(1-propionylpiperidin-4-yl)phenylamino)pyrazine-2-carboxamide] | < 10 nM | – | – | –
COc1ccc(C(=O)N[C@@H]2CCCN(c3cnc(C(N)=O)c(Nc4ccc(C5CCN(C(=O)CC#N)CC5)cc4)n3)C2)cc1 [Example 141, (R)-3-(4-(1-(2-cyanoacetyl)piperidin-4-yl)phenylamino)-5-(3-(4-methoxybenzamido)piperidin-1-yl)pyrazine-2-carboxamide] | < 10 nM | – | – | –
COc1ccc(C(=O)N[C@@H]2CCCN(c3cnc(C(N)=O)c(Nc4ccc(C5CCN(C(=O)N(C)C)CC5)cc4)n3)C2)cc1 [Example 142, (R)-3-(4-(1-(dimethylcarbamoyl)piperidin-4-yl)phenylamino)-5-(3-(4-methoxybenzamido)piperidin-1-yl)pyrazine-2-carboxamide] | 10 to 100 nM | – | – | 10 to 100 nM
COc1ccc(C(=O)N[C@@H]2CCCN(c3cnc(C(N)=O)c(Nc4ccc(C5CCN(S(C)(=O)=O)CC5)cc4)n3)C2)cc1 [Example 143, (R)-5-(3-(4-methoxybenzamido)piperidin-1-yl)-3-(4-(1-(methylsulfonyl)piperidin-4-yl)phenylamino)pyrazine-2-carboxamide] | 10 to 100 nM | – | – | 10 to 100 nM
COc1ccc(C(=O)N[C@@H]2CCCN(c3cnc(C(N)=O)c(Nc4ccc(N5CCC(C(=O)N(C)C)CC5)cc4)n3)C2)cc1 [Example 144, (R)-3-(4-(4-(dimethylcarbamoyl)piperidin-1-yl)phenylamino)-5-(3-(4-methoxybenzamido)piperidin-1-yl)pyrazine-2-carboxamide] | < 10 nM | – | – | < 10 nM
CS(=O)(=O)c1ccc(Nc2nc(N3CCC[C@@H](NC(=O)N4CCCCC4)C3)cnc2C(N)=O)cc1 [Example 145, (R)-3-(4-(methylsulfonyl)phenylamino)-5-(3-(piperidine-1-carboxamido)piperidin-1-yl)pyrazine-2-carboxamide] | < 10 nM | < 10 nM | – | –
CN1CCN(c2ccc(Nc3nc(N4CCC[C@@H](NC(=O)N5CCCCC5)C4)cnc3C(N)=O)cc2)CC1 [Example 146, (R)-3-(4-(4-methylpiperazin-1-yl)phenylamino)-5-(3-(piperidine-1-carboxamido)piperidin-1-yl)pyrazine-2-carboxamide] | 10 to 100 nM | – | – | 10 to 100 nM
